Test results from patent US3958014A, “Process for preparing injection-purpose fluorocarbon emulsion capable of carrying oxygen” (The Green Cross Corporation, priority 1970, dated 1976).

What was measured:
laboratory animal = experiment: toxicity on injection of fluorocarbon emulsion into veins; type: in vivo, laboratory animals; details: emulsion injected into the veins
Experimental: (§1) The present invention is specific in a number of aspects both as to the nature of materials used and the particle sizes and the like, of the resulting emulsion. These parameters were not arrived at casually but rather were determined through a systematic course of investigations which are discussed below. Parameters not expressly discussed below will be apparent to the skilled worker and appropriate conditions will be appreciated. Fluorocarbon - The sole fluorocarbons applicable to the present invention are perfluorodecalin or perfluoromethyldecalin or their mixture. A surfactant or emulsifying agent is also used and surfactant capable of emulsifying and stabilizing these fluorocarbons is egg yolk lecithin and preferably in an amount of from about 3 W/V % to 5 W/V % based on emulsion. There are a number of good reasons for the specificity of the fluorocarbon compounds that are useful.

[1] = accumulation of intravenously injected fluorocarbon in liver and spleen; type: in vivo, laboratory animals; details: for fluorocarbon administered remaining in the organs (liver and spleen): 8 weeks from administration
Experimental: as §1
On the other hand when an emulsion of perfluorodecalin and perfluoromethyldecalin is injected into the veins, of laboratory animals their accumulated in the animal's liver and spleen is very small. For example, perfluorodecalin is as low as zero % and perfluoromethyldecalin is 1.5% even after 8 weeks.

| Compound | toxicity (laboratory animal) | accumulation in the animal's liver and spleen ([1]; i.v. emulsion) | fluorocarbon administered remaining in the organs (liver and spleen) ([1]; i.v. emulsion) | accumulation in the animal's liver and spleen ([1]; in vivo, iv) | lung hazard (laboratory animal) |
| --- | --- | --- | --- | --- | --- |
| FC(OC(F)(F)C(F)(OC(F)(F)C(F)(OC(F)(F)C(F)(OC(F)(F)C(F)(F)C(F)(F)F)C(F)(F)F)C(F)(F)F)C(F)(F)F)C(F)(F)F (centres unmarked) [Freon E4, 2-monohydro-nonacosafluoro3,6,9,12-tetraoxa-5,8,11-trimethylpentadecane] | the toxicity resulting from the accumulation appears | most of these fluorocarbons are accumulated in the animal's liver and spleen | up to 40% | – | – |
| FC(F)(F)C(F)(F)C(F)(F)C(F)(F)N(C(F)(F)C(F)(F)C(F)(F)C(F)(F)F)C(F)(F)C(F)(F)C(F)(F)C(F)(F)F [FC-43, perfluorotributylamine] | the toxicity resulting from the accumulation appears | most of these fluorocarbons are accumulated in the animal's liver and spleen | up to 40% | – | – |
| FC1(F)C(F)(F)C(F)(F)C2(F)C(F)(F)C(F)(F)C(F)(F)C(F)(F)C2(F)C1(F)F (centres unmarked) [perfluorodecalin] | – | – | – | very small | – |
| perfluoromethyldecalin | – | very small | 1.5% | – | – |
| FC(F)(F)C(F)(F)C(F)(F)C(F)(F)C1(F)OC(F)(F)C(F)(F)C1(F)F (centres unmarked) [FX-80, perfluorobutyltetrahydrofuran] | its toxicity is quite high | – | – | – | a remarkable lung hazard appears |
